Experimental data from article PMC6669608, “Evaluation of Oxasqualenoids from the Red Alga Laurencia viridis against Acanthamoeba” (Marine Drugs, 2019).

Experiments:
[1] = system: Acanthamoeba griffini trophozoites; assay: In vitro activity against trophozoites of clinical strain A. griffini; format: cell-based, genotype T3; conditions: trophozoite stage
Experimental: Subsequently, DT was tested against two clinical isolates, A. griffini, genotype T3 obtained in a previous study and A. polyphaga genotype T4 ATCC 30461. Those strains were grown axenically in the same medium as A. castellanii Neff.
The in vitro activities of the different compounds of Laurencia were evaluated using a previously developed colorimetric assay based on the alamarBlue™ Cell Viability Reagent assay (Life Technologies, Barcelona, Spain). Briefly, 50 µL of 5 × 10⁴ trophozoites/mL were seeded onto a 96-well microtiter plate. After 15 min, the adherence of the cells to the plate bottom was confirmed by the use of the inverted microscope Leica DMIL (Leica, Wetzlar, Germany). Furthermore, 50 µL of serial dilutions of each compound was added to the 96-well microtiter plate. Finally, alamarBlue™ was placed into each well at 10% of the final volume and incubated at 26 °C with slight agitation. After 96 h, the fluorescence was measured with EnSpire Multimode Plate Reader (Perkin Elmer, Madrid, Spain) at a wavelength of 570/585 nm. The inhibitory concentration to inhibit the growth of 50% of the parasites (IC50) was calculated through nonlinear regression analysis with 95% confidence limits using the software Sigma Plot 12.0 (Systat Software Inc., London, UK). The experiments were performed three times each, allowing for standard deviation.

A. castellanii Neff [2] = assay: Double-stain assay (Hoechst 33342/PI) for programmed cell death; format: cell-based, Acanthamoeba castellanii Neff; conditions: IC90, 24 h
Experimental: A double-stain apoptosis detection kit (Hoechst 33342/PI) (GenScript, Piscataway, NJ, USA) and an EVOS FL Cell Imaging System AMF4300 (Life Technologies, Carlsbad, CA, USA) were used. The experiment was carried out by following the manufacturer’s recommendations, and 10^5 cells/well were incubated in a 24-well plate for 24 h with the previously calculated IC90. The double-staining pattern allows the identification of three groups in a cellular population: live cells will show only a low level of fluorescence, cells undergoing programmed cell death (PCD) will show a higher level of blue fluorescence (as chromatin condenses), and dead cells will show low-blue and high-red fluorescence (as the propidium iodide stain enters the nucleus).

A. castellanii Neff [3] = assay: Analysis of mitochondrial membrane potential (JC-1); format: cell-based, Acanthamoeba castellanii Neff; conditions: IC90, 24 h
Experimental: Collapse of the electrochemical gradient across the mitochondrial membrane during apoptosis was detected with the JC-1 mitochondrial membrane potential detection kit (Cell Technology, Fremont, CA, USA). After being treated with IC90 of the test compound for 24 h, the cells were centrifuged (1000 rpm × 10 min) and resuspended in JC-1 buffer. Images were taken on an EVOS FL Cell Imaging System AMF4300 (Life Technologies, San Francisco, CA, USA) from Life Technologies (Madrid, Spain). The staining pattern allows the identification of two groups in a cellular population: live cells will show only red fluorescence; cells with low mitochondrial potential, (undergoing PCD) will show a higher level of green and red fluorescence.

[4] = system: A. castellanii Neff trophozoites; assay: Plasma membrane permeability (SYTOX Green); format: cell-based, Acanthamoeba castellanii Neff; conditions: IC90, 24 h
Experimental: The SYTOX Green assay was performed to detect alterations of the membrane permeability in treated cells. Briefly, 10^5 trophozoites were washed and incubated in saline solution with the SYTOX Green at a final concentration of 1 μM (Molecular Probes) for 15 min in the dark. Subsequently, DT solution was added (IC90).

## C=C(CC[C@H](O)[C@@]1(C)CC[C@H](C(C)(C)O)O1)[C@H]1CC[C@H]2O[C@@H]([C@]3(C)CC[C@@H](Br)C(C)(C)O3)CC[C@]2(C)O1 [Compound 1, dehydrothyrsiferol]
[1]
  IC50: 56.7 ± 2.09 µM
A. castellanii Neff [2]
  chromatin condensation (Hoechst 33342/propidium iodide double stain): induce chromatin condensation
A. castellanii Neff [3]
  mitochondrial membrane potential (JC-1): mitochondrial membrane potential collapsed
[4]
  plasma membrane permeability (SYTOX Green): showed plasmatic membrane damage
